Measured values: PMC12090182, “Repurposing of the RIPK1-Selective Benzo[1,4]oxazepin-4-one Scaffold for the Development of a Type III LIMK1/2 Inhibitor” (ACS Chemical Biology, 2025)

Key:
Assay in all cases: scanMAX KINOMEscan (Eurofins)
Type in all cases: binding
ICK = ICK (Homo sapiens, UniProt Q9UPZ9); conditions: 1000 nM, read-out: Percent Control
Text: (§1) Supplement cb5c00097_si_002.xlsx, sheet "Table S6 (Eurofins Selectivity)" | column: Percent Control

OSR1 = OSR1 (Homo sapiens, UniProt O95747); conditions: 1000 nM, read-out: Percent Control
Text: as §1

PIK3C2B = PIK3C2B (Homo sapiens, UniProt O00750); conditions: compound concentration 100 nM; Entrez PIK3C2B; read-out: Percent Control
Text: as §1

PCTK3 = PCTK3 (Homo sapiens, UniProt Q07002); conditions: 1000 nM, read-out: Percent Control
Text: as §1

PRKD2 = PRKD2 (Homo sapiens, UniProt Q9BZL6); conditions: 1000 nM, read-out: Percent Control
Text: as §1

DYRK2 = DYRK2 (Homo sapiens, UniProt Q92630); conditions: read-out: Percent Control
Text: as §1

PFPK5(P.falciparum) = PFPK5(P.falciparum) (Plasmodium falciparum, UniProt P61075); conditions: 1000 nM, read-out: Percent Control
Text: as §1

MAST1 = MAST1 (Homo sapiens, UniProt Q9Y2H9); conditions: 1000 nM, read-out: Percent Control
Text: as §1

TIE1 = TIE1 (Homo sapiens, UniProt P35590); conditions: 1000 nM, read-out: Percent Control
Text: as §1

PAK3 = PAK3 (Homo sapiens, UniProt O75914); conditions: 1000 nM, read-out: Percent Control
Text: as §1

PYK2 = PYK2 (Homo sapiens, UniProt Q14289); conditions: 1000 nM, read-out: Percent Control
Text: as §1

LZK = LZK (Homo sapiens, UniProt O43283); conditions: 1000 nM, read-out: Percent Control
Text: as §1

PIM2 = PIM2 (Homo sapiens, UniProt Q9P1W9); conditions: 1000 nM, read-out: Percent Control
Text: as §1

CDK2 = CDK2 (Homo sapiens, UniProt P24941); conditions: 1000 nM, read-out: Percent Control
Text: as §1

HIPK2 = HIPK2 (Homo sapiens, UniProt Q9H2X6); conditions: 1000 nM, read-out: Percent Control
Text: as §1

CDKL2 = CDKL2 (Homo sapiens, UniProt Q92772); conditions: read-out: Percent Control
Text: as §1

TXK = TXK (Homo sapiens, UniProt P42681); conditions: 1000 nM, read-out: Percent Control
Text: as §1

NEK1 = NEK1 (Homo sapiens, UniProt Q96PY6); conditions: compound concentration 100 nM; Entrez NEK1; read-out: Percent Control
Text: as §1

MAP3K1 = MAP3K1 (Homo sapiens, UniProt Q13233); conditions: compound concentration 100 nM; Entrez MAP3K1; read-out: Percent Control
Text: as §1

PIK3CB = PIK3CB (Homo sapiens, UniProt P42338); conditions: 1000 nM, read-out: Percent Control
Text: as §1

NIK = NIK (Homo sapiens, UniProt Q99558); conditions: compound concentration 100 nM; Entrez MAP3K14; read-out: Percent Control
Text: as §1

MARK1 = MARK1 (Homo sapiens, UniProt Q9P0L2); conditions: compound concentration 100 nM; Entrez MARK1; read-out: Percent Control
Text: as §1

DAPK2 = DAPK2 (Homo sapiens, UniProt Q9UIK4); conditions: 1000 nM, read-out: Percent Control
Text: as §1

IRAK4 = IRAK4 (Homo sapiens, UniProt Q9NWZ3); conditions: compound concentration 100 nM; Entrez IRAK4; read-out: Percent Control
Text: as §1

MAP3K2 = MAP3K2 (Homo sapiens, UniProt Q9Y2U5); conditions: compound concentration 100 nM; Entrez MAP3K2; read-out: Percent Control
Text: as §1

SLK = SLK (Homo sapiens, UniProt Q9H2G2); conditions: 1000 nM, read-out: Percent Control
Text: as §1

TSSK3 = TSSK3 (Homo sapiens, UniProt Q96PN8); conditions: compound concentration 100 nM; Entrez TSSK3; read-out: Percent Control
Text: as §1

FLT3(ITD) = conditions: 1000 nM
Text: as §1

MST1 = MST1 (Homo sapiens, UniProt Q13043); conditions: 1000 nM, read-out: Percent Control
Text: as §1

RET = RET (Homo sapiens, UniProt P07949); conditions: compound concentration 100 nM; Entrez RET; read-out: Percent Control
Text: as §1

PHKG1 = PHKG1 (Homo sapiens, UniProt Q16816); conditions: 1000 nM, read-out: Percent Control
Text: as §1

CAMK4 = CAMK4 (Homo sapiens, UniProt Q16566); conditions: 1000 nM, read-out: Percent Control
Text: as §1

HPK1 = HPK1 (Homo sapiens, UniProt Q92918); conditions: read-out: Percent Control
Text: as §1

NEK7 = NEK7 (Homo sapiens, UniProt Q8TDX7); conditions: 1000 nM, read-out: Percent Control
Text: as §1

AAK1 = AAK1 (Homo sapiens, UniProt Q2M2I8); conditions: 1000 nM, read-out: Percent Control
Text: as §1

BMPR1B = BMPR1B (Homo sapiens, UniProt O00238); conditions: read-out: Percent Control
Text: as §1

PIP5K1A = PIP5K1A (Homo sapiens, UniProt Q99755); conditions: 1000 nM, read-out: Percent Control
Text: as §1

Chain of HPK1 (Q92918 whole entry): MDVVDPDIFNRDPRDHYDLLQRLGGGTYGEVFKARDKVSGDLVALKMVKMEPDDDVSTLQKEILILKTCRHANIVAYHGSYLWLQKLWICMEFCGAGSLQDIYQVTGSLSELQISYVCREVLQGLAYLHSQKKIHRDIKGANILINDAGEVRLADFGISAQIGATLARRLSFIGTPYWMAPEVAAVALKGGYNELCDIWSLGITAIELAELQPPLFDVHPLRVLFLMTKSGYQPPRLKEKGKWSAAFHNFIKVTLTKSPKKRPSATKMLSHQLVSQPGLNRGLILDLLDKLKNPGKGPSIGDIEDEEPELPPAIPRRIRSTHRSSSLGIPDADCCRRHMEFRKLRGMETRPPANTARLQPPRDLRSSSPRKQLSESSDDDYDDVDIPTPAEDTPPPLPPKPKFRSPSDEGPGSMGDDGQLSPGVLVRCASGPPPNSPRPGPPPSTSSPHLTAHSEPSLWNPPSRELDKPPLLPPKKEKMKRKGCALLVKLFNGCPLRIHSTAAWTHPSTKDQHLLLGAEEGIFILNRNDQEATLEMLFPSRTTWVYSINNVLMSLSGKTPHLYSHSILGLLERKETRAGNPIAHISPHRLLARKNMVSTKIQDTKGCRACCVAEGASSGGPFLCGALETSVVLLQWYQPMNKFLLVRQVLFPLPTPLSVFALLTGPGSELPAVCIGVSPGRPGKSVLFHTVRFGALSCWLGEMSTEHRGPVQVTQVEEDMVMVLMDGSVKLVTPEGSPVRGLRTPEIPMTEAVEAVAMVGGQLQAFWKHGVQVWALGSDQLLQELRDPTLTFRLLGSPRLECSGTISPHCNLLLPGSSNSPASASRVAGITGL
Chain of BMPR1B (O00238 14-502): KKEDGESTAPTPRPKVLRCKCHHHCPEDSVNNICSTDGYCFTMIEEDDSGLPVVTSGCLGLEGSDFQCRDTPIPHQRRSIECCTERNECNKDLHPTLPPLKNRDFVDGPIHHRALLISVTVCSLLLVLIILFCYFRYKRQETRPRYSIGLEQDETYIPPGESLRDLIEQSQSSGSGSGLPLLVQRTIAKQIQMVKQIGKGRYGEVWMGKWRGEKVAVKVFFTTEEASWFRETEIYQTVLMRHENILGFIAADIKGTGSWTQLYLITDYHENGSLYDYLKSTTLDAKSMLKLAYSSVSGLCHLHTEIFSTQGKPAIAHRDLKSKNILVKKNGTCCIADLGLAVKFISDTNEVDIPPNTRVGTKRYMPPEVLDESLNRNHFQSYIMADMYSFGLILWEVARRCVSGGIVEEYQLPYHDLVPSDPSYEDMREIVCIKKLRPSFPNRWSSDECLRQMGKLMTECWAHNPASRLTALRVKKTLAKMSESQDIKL
Chain of CDKL2 (Q92772 whole entry): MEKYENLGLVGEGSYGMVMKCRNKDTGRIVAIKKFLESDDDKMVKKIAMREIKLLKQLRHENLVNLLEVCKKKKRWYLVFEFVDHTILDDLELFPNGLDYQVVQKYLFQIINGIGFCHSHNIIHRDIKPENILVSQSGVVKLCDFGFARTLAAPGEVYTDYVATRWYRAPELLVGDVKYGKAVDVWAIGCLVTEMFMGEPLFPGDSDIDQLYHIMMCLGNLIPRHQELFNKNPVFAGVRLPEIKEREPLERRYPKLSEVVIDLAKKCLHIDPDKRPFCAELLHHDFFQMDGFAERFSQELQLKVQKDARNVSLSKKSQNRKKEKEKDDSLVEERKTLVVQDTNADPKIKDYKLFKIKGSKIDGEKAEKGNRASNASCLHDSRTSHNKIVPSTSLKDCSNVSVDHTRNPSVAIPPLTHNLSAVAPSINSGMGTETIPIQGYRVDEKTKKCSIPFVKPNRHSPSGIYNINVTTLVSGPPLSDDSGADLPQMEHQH
Chain of DYRK2 (Q92630 whole entry): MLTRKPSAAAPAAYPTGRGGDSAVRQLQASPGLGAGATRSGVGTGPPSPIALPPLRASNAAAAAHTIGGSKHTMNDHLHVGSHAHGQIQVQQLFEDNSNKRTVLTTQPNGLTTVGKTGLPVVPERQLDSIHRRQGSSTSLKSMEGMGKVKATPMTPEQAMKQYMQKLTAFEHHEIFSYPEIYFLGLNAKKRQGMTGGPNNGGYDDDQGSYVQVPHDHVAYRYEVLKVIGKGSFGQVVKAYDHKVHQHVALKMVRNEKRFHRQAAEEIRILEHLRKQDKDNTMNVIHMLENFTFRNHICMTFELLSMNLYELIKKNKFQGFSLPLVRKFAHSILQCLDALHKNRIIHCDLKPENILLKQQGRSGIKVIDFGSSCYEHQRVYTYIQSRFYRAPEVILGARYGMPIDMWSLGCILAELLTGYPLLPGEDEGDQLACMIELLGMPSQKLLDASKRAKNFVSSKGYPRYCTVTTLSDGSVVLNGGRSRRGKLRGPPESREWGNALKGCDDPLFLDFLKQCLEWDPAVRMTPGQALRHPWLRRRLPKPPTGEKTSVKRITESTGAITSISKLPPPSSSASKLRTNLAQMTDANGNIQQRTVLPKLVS
Chain of MAP3K2 (Q9Y2U5 whole entry): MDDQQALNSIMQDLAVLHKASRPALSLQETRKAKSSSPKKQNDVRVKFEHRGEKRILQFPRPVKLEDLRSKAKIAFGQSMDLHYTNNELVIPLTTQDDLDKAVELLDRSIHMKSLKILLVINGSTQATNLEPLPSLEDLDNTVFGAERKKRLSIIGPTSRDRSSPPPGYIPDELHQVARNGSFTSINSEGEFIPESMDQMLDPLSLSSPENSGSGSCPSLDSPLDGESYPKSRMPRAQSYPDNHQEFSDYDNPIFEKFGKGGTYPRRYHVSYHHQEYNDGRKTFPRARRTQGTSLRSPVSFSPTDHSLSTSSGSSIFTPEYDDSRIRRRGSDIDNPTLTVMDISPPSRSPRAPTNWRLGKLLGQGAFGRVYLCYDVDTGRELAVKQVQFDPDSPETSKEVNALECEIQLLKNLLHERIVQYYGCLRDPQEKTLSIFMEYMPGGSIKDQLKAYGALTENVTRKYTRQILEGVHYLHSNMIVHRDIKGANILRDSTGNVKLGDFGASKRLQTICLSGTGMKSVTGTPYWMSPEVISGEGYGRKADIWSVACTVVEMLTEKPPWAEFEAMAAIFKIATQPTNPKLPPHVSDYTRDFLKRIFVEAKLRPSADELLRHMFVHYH
Chain of NIK (Q99558 whole entry): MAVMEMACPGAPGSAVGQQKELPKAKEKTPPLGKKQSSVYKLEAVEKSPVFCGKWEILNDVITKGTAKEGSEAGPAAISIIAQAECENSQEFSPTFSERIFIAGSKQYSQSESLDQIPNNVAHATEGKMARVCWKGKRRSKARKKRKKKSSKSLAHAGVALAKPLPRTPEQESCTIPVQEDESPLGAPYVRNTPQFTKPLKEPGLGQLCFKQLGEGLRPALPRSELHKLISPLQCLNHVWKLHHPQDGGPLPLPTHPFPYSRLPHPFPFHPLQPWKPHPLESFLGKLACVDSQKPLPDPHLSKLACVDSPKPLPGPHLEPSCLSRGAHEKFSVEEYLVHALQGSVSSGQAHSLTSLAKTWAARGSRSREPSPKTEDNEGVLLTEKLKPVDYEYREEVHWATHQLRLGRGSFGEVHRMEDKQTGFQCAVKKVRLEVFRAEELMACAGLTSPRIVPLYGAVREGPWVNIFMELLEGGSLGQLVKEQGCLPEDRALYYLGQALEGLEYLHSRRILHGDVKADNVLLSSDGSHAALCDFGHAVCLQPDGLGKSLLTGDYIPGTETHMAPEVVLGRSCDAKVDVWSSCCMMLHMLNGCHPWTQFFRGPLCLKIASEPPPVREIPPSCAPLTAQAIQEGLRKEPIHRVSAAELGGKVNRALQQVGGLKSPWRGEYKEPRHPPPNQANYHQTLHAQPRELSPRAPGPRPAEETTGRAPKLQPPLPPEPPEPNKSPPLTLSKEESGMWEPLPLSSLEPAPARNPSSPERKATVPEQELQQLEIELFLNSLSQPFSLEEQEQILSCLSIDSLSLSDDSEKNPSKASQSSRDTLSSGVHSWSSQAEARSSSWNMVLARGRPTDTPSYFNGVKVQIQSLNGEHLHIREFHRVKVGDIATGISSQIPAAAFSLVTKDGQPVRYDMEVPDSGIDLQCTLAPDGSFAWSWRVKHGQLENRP
Chain of PCTK3 (Q07002 whole entry): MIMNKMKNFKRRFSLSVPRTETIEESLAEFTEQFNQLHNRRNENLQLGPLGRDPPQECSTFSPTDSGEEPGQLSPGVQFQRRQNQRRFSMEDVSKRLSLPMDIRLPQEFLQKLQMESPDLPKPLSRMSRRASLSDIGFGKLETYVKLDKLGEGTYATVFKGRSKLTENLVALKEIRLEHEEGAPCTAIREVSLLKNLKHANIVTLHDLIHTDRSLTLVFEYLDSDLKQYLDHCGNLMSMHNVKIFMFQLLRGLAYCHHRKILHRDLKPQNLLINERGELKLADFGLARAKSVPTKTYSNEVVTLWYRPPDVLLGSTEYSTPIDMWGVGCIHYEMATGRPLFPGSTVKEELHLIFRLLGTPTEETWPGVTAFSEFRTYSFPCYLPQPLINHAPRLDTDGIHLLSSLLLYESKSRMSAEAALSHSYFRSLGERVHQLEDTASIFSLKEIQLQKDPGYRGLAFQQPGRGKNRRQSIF
Chain of PFPK5(P.falciparum) (P61075 whole entry): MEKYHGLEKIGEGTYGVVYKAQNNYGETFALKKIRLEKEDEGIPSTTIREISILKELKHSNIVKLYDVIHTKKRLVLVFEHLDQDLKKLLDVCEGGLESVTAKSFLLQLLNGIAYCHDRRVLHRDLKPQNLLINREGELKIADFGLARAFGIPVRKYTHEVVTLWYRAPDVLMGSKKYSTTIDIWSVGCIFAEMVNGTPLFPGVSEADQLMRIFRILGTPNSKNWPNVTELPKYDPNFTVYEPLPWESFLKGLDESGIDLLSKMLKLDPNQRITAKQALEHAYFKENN
Chain of TSSK3 (Q96PN8 whole entry): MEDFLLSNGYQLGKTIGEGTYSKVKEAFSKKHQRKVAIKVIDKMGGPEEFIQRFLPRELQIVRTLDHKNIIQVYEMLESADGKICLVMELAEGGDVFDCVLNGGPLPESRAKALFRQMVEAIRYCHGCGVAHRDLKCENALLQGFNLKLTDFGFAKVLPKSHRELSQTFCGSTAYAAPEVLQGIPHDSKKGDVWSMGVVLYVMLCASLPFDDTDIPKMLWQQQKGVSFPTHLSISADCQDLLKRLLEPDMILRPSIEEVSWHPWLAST

**Q.** What does the source list for `CN1C(=O)[C@@H](N2CCc3c(nn(Cc4ccccc4)c3C(N)=O)C2=O)COc2cc(Cl)ccc21` [Compound 10, (S)-2-benzyl-6-(8-chloro-5-methyl-4-oxo-2,3,4,5-tetrahydrobenzo[b][1,4]oxazepin-3-yl)-7-oxo-4,5,6,7-tetrahydro-2H-pyrazolo[3,4-c]pyridine-3-carboxamide]?
**A.** remaining binding at 1 µM (ICK): 85%; remaining binding at 1 µM (OSR1): 74%; remaining binding at 0.1 µM (PIK3C2B): 86%; remaining binding at 1 µM (PCTK3): 88%; remaining binding at 1 µM (PRKD2): 96%; remaining binding at 1 µM (DYRK2; 1000 nM): 100%; remaining binding at 0.1 µM (DYRK2; compound concentration 100 nM, Entrez DYRK2): 100%; remaining binding at 1 µM (PFPK5(P.falciparum)): 66%; remaining binding at 1 µM (MAST1): 75%; remaining binding at 1 µM (TIE1): 94%; remaining binding at 1 µM (PAK3): 74%; remaining binding at 1 µM (PYK2): 82%; remaining binding at 1 µM (LZK): 67%; remaining binding at 1 µM (PIM2): 91%; remaining binding at 1 µM (CDK2): 92%; remaining binding at 1 µM (HIPK2): 81%; remaining binding at 1 µM (CDKL2; 1000 nM): 100%; remaining binding at 0.1 µM (CDKL2; compound concentration 100 nM, Entrez CDKL2): 100%; remaining binding at 1 µM (TXK): 86%; remaining binding at 0.1 µM (NEK1): 76%; remaining binding at 0.1 µM (MAP3K1): 100%; remaining binding at 1 µM (PIK3CB): 88%; remaining binding at 0.1 µM (NIK): 80%; remaining binding at 0.1 µM (MARK1): 76%; remaining binding at 1 µM (DAPK2): 86%; remaining binding at 0.1 µM (IRAK4): 100%; remaining binding at 0.1 µM (MAP3K2): 100%; remaining binding at 1 µM (SLK): 78%; remaining binding at 0.1 µM (TSSK3): 100%; Percent Control (FLT3(ITD)): 77%; remaining binding at 1 µM (MST1): 92%; remaining binding at 0.1 µM (RET): 100%; remaining binding at 1 µM (PHKG1): 93%; remaining binding at 1 µM (CAMK4): 95%; remaining binding at 1 µM (HPK1; 1000 nM): 100%; remaining binding at 0.1 µM (HPK1; compound concentration 100 nM, Entrez MAP4K1): 99%; remaining binding at 1 µM (NEK7): 93%; remaining binding at 1 µM (AAK1): 83%; remaining binding at 1 µM (BMPR1B; 1000 nM): 100%; remaining binding at 0.1 µM (BMPR1B; compound concentration 100 nM, Entrez BMPR1B): 88%; remaining binding at 1 µM (PIP5K1A): 69%
